# Source: patent publication EP0355234A1, “Pyrazolopyridine derivatives as antiatherosclerotic and antihypercholesterolemic agents” (MERRELL DOW PHARMACEUTICALS INC., priority 1988, dated 1990)
# Where a name gives a salt, the structure may show the parent alone.
# System: Hypercholesterolemic Rabbit
# Assay: Antiatherosclerotic and antihypercholesterolemic effects in the hypercholesterolemic (2% cholesterol diet) rabbit, six weeks of treatment
# Assay type: in vivo, New Zealand white male rabbits
# Conditions: mean ± standard deviation; for % of thoracic arota covered by plaque / Aortic arch cholesterol: 6 weeks treatment; for % of thoracic arota covered by plaque: Sudan Black stain, cut-weight planimetry, positive control Group 2: 70.57±9.54; for Aortic arch cholesterol: positive control Group 2: 15.82±4.64; for Serum Cholesterol: after 6 wks treatment, positive control Group 2: 2475±434
# Experimental: Four groups of New Zealand white male rabbits (weighing 1-2 kg) were treated for six weeks according to the following treatment schedule [all injections were in volumes corresponding to 0.1 ml/kg subcutaneously (s.c.)]: • Group 1 maintained on normal rabbit chow; received polyethylene glycol 300 (PEG ) injection twice daily. • Group 2 (Positive Control) maintained on rabbit chow containing 2% by weight cholesterol; received PEG injection twice daily. • Group 3 maintained on rabbit chow containing 2% by weight cholesterol; received 4,7-dihydro-1,6-dimethyl-4-(2-methylphenyl)-3-(2-methylpropyl)-1H-pyrozolo[3,4-b]pyridine-5-carboxylic acid methyl ester monohydrochloride (compound 1A) at a dose of 1 mg/kg in PEG twice daily. • Group 4 maintained on rabbit chow containing 2% by weight cholesterol; received compound 1A at a dose of 10 mg/kg in PEG twice daily.
# The body weight of each rabbit was measured weekly. At three week and six week intervals after the start of treatment, blood samples were obtained from each rabbit and determinations of platelet aggregation, serum cholesterol, triglycerides, electrolyte concentrations and hematological parameters were performed.
# Six weeks after the start of treatment, the animals were sacrificed. Aortic arches and thoracic aortas were removed and were dissected free of extraneous tissues. The aortic arches were weighed, homogenized in isopropanol, and determinations of cholesterol, triglycerides and electrolyte concentrations were performed. Thoracic aortas were slit down the ventral surface and stained for lipoproteins and lipids by immersion for 5 min in Sudan Black according to the method of Gradwohl (Gradwohl's Clinical Laboratory Methods and Diagnosis (1980) Vol. 1, Edition 8, Chapter 25, pg 771; Sonnenwerth and Jarett, editors, The C.V. Mosby Company, St. Louis, Toronto, London). The percentage of luminal surface covered by atherosclerotic plaque was assessed by "cut-weight" planimetry of the projected image according to the method of Willis et al. (Arteriosclerosis 5, 250 (1985)) whereby the photographic image was projected at a magnification of 7 to 10 and the outer border of the tissue and the boundary between plaque and uninvolved tissue were traced and the appropriate areas were cut out and weighed.
# [1] = Group 3: 1 mg/kg bid s.c. in PEG
# [2] = Group 4: 10 mg/kg bid s.c. in PEG
smiles,measurement,setting,value
"COC(=O)C1=C(C)Nc2c(c(CC(C)C)nn2C)C1c1ccccc1C (stereo not drawn) [Compound 1A, 4,7-dihydro-1,6-dimethyl-4-(2-methylphenyl)-3-(2-methylpropyl)-1H-pyrozolo[3,4-b]pyridine-5-carboxylic acid methyl ester monohydrochloride]",% of thoracic arota covered by plaque,[1],34.33±19.03 %
same,Aortic arch cholesterol,[1],9.57±1.38 µg/mg wet wt.
same,Serum Cholesterol,[1],1919 ± 345 mg/dL
same,% of thoracic arota covered by plaque,[2],36.71±9.95 %
same,Aortic arch cholesterol,[2],9.27±1.91 µg/mg wet wt.
same,Serum Cholesterol,[2],1774 ± 300 mg/dL
